Like-named read-outs stand apart in the source and are kept apart here.
Legend:
[1] = biological target: T1, PDE4B: The catalytic domain of human PDE4B from S152-S528 (Homo sapiens, UniProt Q07343); assay: PDE4 IC50 determination by Scintillation Proximity Assay, PDE4B; type: biochemical
T1 construct: His6 (N); thrombin cleavage site (N); made in house; host or cells: E. coli
Procedure, shortened: (§1)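 Scintillation counts reflected [^3H]AMP captured on yttrium silicate SPA beads after enzyme hydrolysed [^3H]cAMP for 30 min at 30°. PDE4B was used at 80 ng/ml and PDE4D at 4 ng/ml. IC50 values came from non-linear regression.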

[2] = biological target: T2, PDE4D (Homo sapiens, UniProt Q08499); assay: PDE4 IC50 determination by Scintillation Proximity Assay, PDE4D; type: biochemical
T2 construct: PDE4D: The catalytic domain of human PDE4B from S3 16-V692; His6 (N); thrombin cleavage site (N); made in house; host or cells: E. coli
T2 sequence (Q08499 380-756): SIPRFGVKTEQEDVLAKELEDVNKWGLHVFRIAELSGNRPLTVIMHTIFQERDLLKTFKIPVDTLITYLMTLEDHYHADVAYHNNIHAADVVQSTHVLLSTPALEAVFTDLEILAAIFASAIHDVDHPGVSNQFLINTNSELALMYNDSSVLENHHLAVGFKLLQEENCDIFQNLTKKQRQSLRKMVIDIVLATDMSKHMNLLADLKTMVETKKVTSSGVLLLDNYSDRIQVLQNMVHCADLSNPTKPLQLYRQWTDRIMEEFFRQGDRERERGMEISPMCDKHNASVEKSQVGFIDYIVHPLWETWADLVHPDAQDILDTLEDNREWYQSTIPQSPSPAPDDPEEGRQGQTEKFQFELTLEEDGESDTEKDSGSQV
Procedure, shortened: as §1

[3] = second part of Table 2B (2-23 to 2-103), column 3, column is PDE4B in first part, read-out: IC 50 vs. indicated assay h TNFα
[4] = second part of Table 2B (2-23 to 2-103), column 5, column is PDE4D in first part, read-out: IC 50 vs. indicated assay h TNFα
[5] = Table 3A, Formula III compounds, read-out: IC50 PDE4B
[6] = Table 3A, Formula III compounds, read-out: IC50 PDE4D
[7] = Table 1B, Formula I compounds, read-out: IC50 PDE4B
[8] = Table 1B, Formula I compounds, read-out: IC50 PDE4D
[9] = first part of Table 2B (2-1 to 2-22), read-out: IC 50 vs. indicated assay PDE4B
[10] = first part of Table 2B (2-1 to 2-22), read-out: IC 50 vs. indicated assay PDE4D

T1 sequence (Q07343 with tags, fused parts or gaps): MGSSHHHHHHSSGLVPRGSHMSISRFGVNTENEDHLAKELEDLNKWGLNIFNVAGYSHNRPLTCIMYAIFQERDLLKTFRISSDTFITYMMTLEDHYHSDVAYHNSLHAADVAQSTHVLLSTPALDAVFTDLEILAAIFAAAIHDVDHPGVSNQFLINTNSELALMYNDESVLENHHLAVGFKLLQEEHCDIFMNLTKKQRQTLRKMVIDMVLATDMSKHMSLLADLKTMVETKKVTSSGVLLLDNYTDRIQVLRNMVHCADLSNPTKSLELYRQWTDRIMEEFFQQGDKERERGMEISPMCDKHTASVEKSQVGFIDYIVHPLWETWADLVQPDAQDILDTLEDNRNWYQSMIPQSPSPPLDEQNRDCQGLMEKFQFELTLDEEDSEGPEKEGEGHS

IC50 [1, 3] [µM]	IC50 [2, 4] [µM]	IC50 [1, 7] [µM]	IC50 [2, 8] [µM]	SMILES	other results
< 10	< 10	–	–	Nc1nc(Nc2ccc(Cl)cc2)sc1C(=O)c1ccccc1 [Compound 2-26, [4-Amino-2-(4-chloro-phenylamino)-thiazol-5-yl]-phenyl-methanone]	–
–	–	–	–	O=S(=O)(Nc1cccc2cccnc12)c1ccc(-c2ccccn2)s1 [Compound 3-30, 5-Pyridin-2-yl-thiophene-2-sulfonic acid quinolin-8-ylamide]	IC50 [1, 5]: > 10 µM; IC50 [2, 6]: > 10 µM
< 10	< 10	–	–	Nc1nc(Nc2ccccc2)sc1C(=O)C1CCCC1 [Compound 2-89, (4-Amino-2-phenylamino-thiazol-5-yl)-cyclopentyl-methanone]	–
–	–	< 10	< 10	N#Cc1c(NCC2CCCO2)sc(C(=O)c2ccc(-c3ccccn3)s2)c1N (stereo not shown) [Compound 1-80, 4-Amino-5-(5-pyridin-2-yl-thiophene-2-carbonyl)-2-[(tetrahydro-furan-2-ylmethyl)-amino]-thiophene-3-carbonitrile]	–
–	–	< 10	< 10	COC(=O)C(CC(C)C)Nc1sc(C(=O)c2ccccc2Cl)c(N)c1C#N (stereo not shown) [Compound 1-111, 2-[4-Amino-5-(2-chloro-benzoyl)-3-cyano-thiophene-2-ylamino]-4-methyl-pentanoic acid methyl ester]	–
–	–	–	–	COc1cc(NS(=O)(=O)c2cc(Cl)c(Cl)s2)c2ncccc2c1 [Compound 3-9, 4,5-Dichloro-thiophene-2-sulfonic acid (6-methoxy-quinolin-8-yl)-amide]	IC50 [1, 5]: > 10 µM; IC50 [2, 6]: > 10 µM
< 10	< 10	–	–	Nc1nc(Nc2cc(Cl)ccc2Cl)sc1C(=O)c1ccccc1 [Compound 2-32, [4-Amino-2-(2,5-dichloro-phenylamino)-thiazol-5-yl]-phenyl-methanone]	–
< 10	< 10	–	–	Nc1nc(Nc2ccc(F)cc2)sc1C(=O)c1ccc(F)cc1 [Compound 2-28, [4-Amino-2-(4-fluoro-phenylamino)-thiazol-5-yl]-(4-fluoro-phenyl)-methanone]	–
< 10	< 10	–	–	Nc1nc(Nc2ccc(Cl)cc2)sc1C(=O)c1cccc([N+](=O)[O-])c1 [Compound 2-24, [4-Amino-2-(4-chloro-phenylamino)-thiazol-5-yl]-(3-nitro-phenyl)-methanone]	–
–	–	–	–	Cn1nc(-c2ccc(S(=O)(=O)Nc3cccc4cccnc34)s2)cc1C(F)(F)F [Compound 3-20, 5-(1-Methyl-5-trifluoromethyl-1H-pyrazol-3-yl)-thiophene-2-sulfonic acid quinolin-8-ylamide]	IC50 [1, 5]: > 10 µM; IC50 [2, 6]: > 10 µM
< 10	< 10	–	–	Nc1nc(NC2CC2)sc1C(=O)c1cccc(C(F)(F)F)c1 [Compound 2-88, (4-Amino-2-cyclopropylamino-thiazol-5-yl)-(3-trifluoromethyl-phenyl)-methanone]	–
–	–	< 10	< 10	COc1ccc(C(=O)c2sc(NC3CCCC3)c(C#N)c2N)cc1 [Compound 1-183, 4-Amino-2-cyclopentylamino-5-(4-methoxy-benzoyl)-thiophene-3-carbonitrile]	–
< 10	< 10	–	–	Nc1nc(NC2CCCC2)sc1C(=O)c1cccc(C(F)(F)F)c1 [Compound 2-82, (4-Amino-2-cyclopentylamino-thiazol-5-yl)-(3-trifluoromethyl-phenyl)-methanone]	–
–	–	< 10	> 10	N#Cc1c(Nc2ccc(Oc3ccccc3)cc2)sc(C(=O)c2ccccn2)c1N [Compound 1-150, 4-Amino-2-(4-phenoxy-phenylamino)-5-(pyridine-2-carbonyl)-thiophene-3-carbonitrile]	–
–	–	> 10	> 10	COc1ccc(C(=O)c2sc(Nc3ccc(C(=O)NC4CCOC4=O)cc3)c(C#N)c2N)c(OC)c1 (stereo not shown) [Compound 1-103, 4-[4-Amino-3-cyano-5-(2,4-dimethoxy-benzoyl)-thiophen-2-ylamino]-N-(2-oxo-tetrahydro-furan-3-yl)-benzamide]	–
< 10	> 10	–	–	COc1cccc(C(=O)c2sc(NC(C)C)nc2N)c1 [Compound 2-69, (4-Amino-2-isopropylamino-thiazol-5-yl)-(3-methoxy-phenyl)-methanone]	–
–	–	–	–	COc1ccc(Nc2nc(N)c(C(=O)c3cc(-c4ccccc4)no3)s2)cc1 [Compound 2-7, [4-Amino-2-(4-methoxy-phenylamino)-thiazol-5-yl]-(3-phenyl-isoxazol-5-yl)-methanone]	IC50 [1, 9]: < 10 µM; IC50 [2, 10]: < 10 µM
–	–	–	–	O=S(=O)(Nc1cccc2cccnc12)c1cc(S(=O)(=O)c2ccccc2)cs1 [Compound 3-37, 4-Benzenesulfonyl-thiophene-2-sulfonic acid quinolin-8-ylamide]	IC50 [1, 5]: > 10 µM; IC50 [2, 6]: > 10 µM

IC50 [1, 3] [µM]	IC50 [2, 4] [µM]	IC50 [1, 7] [µM]	IC50 [2, 8] [µM]	SMILES	other results
–	–	< 10	< 10	N#Cc1c(Nc2ccc(C(=O)NC3CCOC3=O)cc2)sc(C(=O)c2csc3ccccc23)c1N (stereo not shown) [Compound 1-123, 4-[4-Amino-5-(benzo[b]thiophene-3-carbonyl)-3-cyano-thiophen-2-ylamino]-N-(2-oxo-tetrahydro-furan-3-yl)-benzamide]	–
–	–	–	–	O=S(=O)(Nc1cccc2cccnc12)c1ccc(-c2cnco2)s1 [Compound 3-34, 5-Oxazol-5-yl-thiophene-2-sulfonic acid quinolin-8-ylamide]	IC50 [1, 5]: < 10 µM; IC50 [2, 6]: < 10 µM
–	–	< 10	> 10	COc1ccc(OC)c(C(=O)c2sc(Nc3ccc(Oc4ccccc4)cc3)c(C#N)c2N)c1 [Compound 1-96, 4-Amino-5-(2,5-dimethoxy-benzoyl)-2-(4-phenoxy-phenylamino)-thiophene-3-carbonitrile]	–
–	–	–	–	Cc1nc(-c2cnccn2)sc1C(=O)c1sc(NC2CCCC2)nc1N [Compound 2-22, (4-Amino-2-cyclopentylamino-thiazol-5-yl)-(4-methyl-2-pyrazin-2-yl-thiazol-5-yl)-methanone]	IC50 [1, 9]: < 10 µM; IC50 [2, 10]: < 10 µM
–	–	< 10	< 10	COC(=O)C(CC(C)C)Nc1sc(C(=O)c2cc(-c3ccccc3)no2)c(N)c1C#N (stereo not shown) [Compound 1-141, 2-[4-Amino-3-cyano-5-(3-phenyl-isoxazole-5-carbonyl)-thiophen-2-ylamino]-4-methyl-pentanoic acid methyl ester]	–
–	–	< 10	> 10	N#Cc1c(Nc2ccc(Oc3ccccc3)cc2)sc(C(=O)c2ccc(-c3ccccn3)s2)c1N [Compound 1-76, 4-Amino-2-(4-phenoxy-phenylamino)-5-(5-pyridin-2-yl-thiophene-2-carbonyl)-thiophene-3-carbonitrile]	–
–	–	–	–	CC(C)Nc1nc(N)c(C(=O)c2cc(-c3ccc(Cl)cc3)no2)s1 [Compound 2-13, (4-Amino-2-isopropylamino-thiazol-5-yl)-[3-(4-chloro-phenyl)-isoxazol-5-yl]-methanone]	IC50 [1, 9]: < 10 µM; IC50 [2, 10]: < 10 µM
< 10	< 10	–	–	Nc1nc(NC2CCCC2)sc1C(=O)c1nc2ccccc2s1 [Compound 2-103, (4-Amino-2-cyclopentylamino-thiazol-5-yl)-benzothiazol-2-yl-methanone]	–
–	–	–	–	CC(C)CNc1nc(N)c(C(=O)c2cc(-c3ccc(Cl)cc3)no2)s1 [Compound 2-16, (4-Amino-2-isobutylamino-thiazol-5-yl)-[3-(4-chloro-phenyl)-isoxazol-5-yl]-methanone]	IC50 [1, 9]: < 10 µM; IC50 [2, 10]: < 10 µM
–	–	–	–	COc1cc(NS(=O)(=O)Cc2ccccc2)c2ncccc2c1 [Compound 3-54, N-(6-Methoxy-quinolin-8-yl)-C-phenyl-methanesulfonamide]	IC50 [1, 5]: > 10 µM; IC50 [2, 6]: > 10 µM
< 10	< 10	–	–	COc1cccc(C(=O)c2sc(NC3CCCC3)nc2N)c1 [Compound 2-86, (4-Amino-2-cyclopentylamino-thiazol-5-yl)-(3-methoxy-phenyl)-methanone]	–
< 10	> 10	–	–	Nc1nc(Nc2ccccn2)sc1C(=O)c1ccccc1 [Compound 2-73, [4-Amino-2-(pyridin-2-ylamino)-thiazol-5-yl]-phenyl-methanone]	–
–	–	< 10	< 10	N#Cc1c(Nc2ccccc2)sc(C(=O)Nc2nccs2)c1N [Compound 1-25, 3-Amino-4-cyano-5-phenylamino-thiophene-2-carboxylic acid thiazol-2-yl amide]	–
< 10	< 10	–	–	Nc1nc(Nc2ccccc2F)sc1C(=O)c1ccc(OC(F)F)cc1 [Compound 2-58, [4-Amino-2-(2-fluoro-phenylamino)-thiazol-5-yl]-(4-difluoromethoxy-phenyl)-methanone]	–
–	–	–	–	COC(=O)c1ccc(S(=O)(=O)Nc2cc(OC)cc3cccnc23)o1 [Compound 3-45, 5-(6-Methoxy-quinolin-8-ylsulfamoyl)-furan-2-carboxylic acid methyl ester]	IC50 [1, 5]: > 10 µM; IC50 [2, 6]: > 10 µM
–	–	> 10	> 10	N#Cc1c(NC2CCCC2)sc(C(N)=O)c1N [Compound 1-196, 3-Amino-4-cyano-5-cyclopentylamino-thiophene-2-carboxylic acid amide]	–
–	–	–	–	O=S(=O)(Nc1cccc2cccnc12)c1ccc(S(=O)(=O)c2ccccc2)s1 [Compound 3-40, 5-Benzenesulfonyl-thiophene-2-sulfonic acid quinolin-8-ylamide]	IC50 [1, 5]: > 10 µM; IC50 [2, 6]: > 10 µM

Source: US7585859B2, “PDE4B inhibitors and uses therefor” (Plexxikon, Inc., priority 2004, dated 2009)
